Laboratory results: patent publication US6491894B1, “NGR receptor and methods of identifying tumor homing molecules that home to angiogenic vasculature using same” (The Burnham Institute, priority 1998, dated 2002)
Where no end group is shown, it is not given here.

Legend:
CD13/APN = target: T1, CD13/APN (Homo sapiens, UniProt P15144); assay: Affinity chromatography of cell extracts on immobilized peptide; assay type: binding
T1 construct: Experiments were performed using HL-60 cell extracts because they are known to express CD13/APN; endogenous in cells; host or cells: HL-60 cells (extract)
T1 sequence (P15144 whole entry): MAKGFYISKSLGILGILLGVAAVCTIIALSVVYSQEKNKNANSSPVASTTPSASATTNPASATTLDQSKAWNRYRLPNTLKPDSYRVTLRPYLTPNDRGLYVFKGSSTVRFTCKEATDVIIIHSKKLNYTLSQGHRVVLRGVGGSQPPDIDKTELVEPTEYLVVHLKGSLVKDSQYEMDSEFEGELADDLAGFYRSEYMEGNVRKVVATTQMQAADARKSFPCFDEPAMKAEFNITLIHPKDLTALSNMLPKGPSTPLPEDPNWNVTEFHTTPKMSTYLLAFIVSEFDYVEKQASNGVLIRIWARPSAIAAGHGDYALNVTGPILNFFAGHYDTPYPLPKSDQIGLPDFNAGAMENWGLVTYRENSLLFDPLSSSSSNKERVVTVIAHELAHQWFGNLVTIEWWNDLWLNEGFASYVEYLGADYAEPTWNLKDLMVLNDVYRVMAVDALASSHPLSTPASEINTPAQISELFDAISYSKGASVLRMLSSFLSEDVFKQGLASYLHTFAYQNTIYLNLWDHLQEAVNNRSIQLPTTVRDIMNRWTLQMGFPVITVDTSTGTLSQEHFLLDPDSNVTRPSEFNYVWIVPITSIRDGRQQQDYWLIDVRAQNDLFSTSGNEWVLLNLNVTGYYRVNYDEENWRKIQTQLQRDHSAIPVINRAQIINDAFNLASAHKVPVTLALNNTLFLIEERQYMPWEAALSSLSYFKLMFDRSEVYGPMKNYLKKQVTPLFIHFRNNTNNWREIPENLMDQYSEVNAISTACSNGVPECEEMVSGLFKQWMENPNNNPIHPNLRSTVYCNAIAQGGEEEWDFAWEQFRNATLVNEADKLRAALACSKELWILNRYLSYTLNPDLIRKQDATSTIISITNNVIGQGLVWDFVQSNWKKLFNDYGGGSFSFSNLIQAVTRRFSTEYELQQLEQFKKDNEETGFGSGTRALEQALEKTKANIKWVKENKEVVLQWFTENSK
Protocol: To further characterize the interaction of CD13/APN with the NGR peptide, affinity chromatography on the CNGRC peptide was performed. The column was prepared by coupling the CNGRC peptide to SEPHAROSE (Pharmacia; Piscataway N.J.). Elution was effected with soluble CNGRC peptide. […] Extracts of Molt-4 and MDA-MB-435 cells transfected with CD13/APN were also characterized by using affinity chromatography, with extracts of the mock transfected counterparts used as negative controls.
The fractions were also analyzed for CD13 enzymatic activity using AlapNA as the substrate.

CD13 = target: T2, CD13 (Gallus gallus, UniProt O57579); assay: bFGF-induced angiogenesis in chicken chorioallantoic membrane (CAM); assay type: in vivo; details: topical, 3 days
T2 construct: CD13 is expressed in CAM angiogenic vasculature; from tissue; host or cells: chorioallantoic membrane of 10-day chicken embryos
T2 sequence (O57579 1-972): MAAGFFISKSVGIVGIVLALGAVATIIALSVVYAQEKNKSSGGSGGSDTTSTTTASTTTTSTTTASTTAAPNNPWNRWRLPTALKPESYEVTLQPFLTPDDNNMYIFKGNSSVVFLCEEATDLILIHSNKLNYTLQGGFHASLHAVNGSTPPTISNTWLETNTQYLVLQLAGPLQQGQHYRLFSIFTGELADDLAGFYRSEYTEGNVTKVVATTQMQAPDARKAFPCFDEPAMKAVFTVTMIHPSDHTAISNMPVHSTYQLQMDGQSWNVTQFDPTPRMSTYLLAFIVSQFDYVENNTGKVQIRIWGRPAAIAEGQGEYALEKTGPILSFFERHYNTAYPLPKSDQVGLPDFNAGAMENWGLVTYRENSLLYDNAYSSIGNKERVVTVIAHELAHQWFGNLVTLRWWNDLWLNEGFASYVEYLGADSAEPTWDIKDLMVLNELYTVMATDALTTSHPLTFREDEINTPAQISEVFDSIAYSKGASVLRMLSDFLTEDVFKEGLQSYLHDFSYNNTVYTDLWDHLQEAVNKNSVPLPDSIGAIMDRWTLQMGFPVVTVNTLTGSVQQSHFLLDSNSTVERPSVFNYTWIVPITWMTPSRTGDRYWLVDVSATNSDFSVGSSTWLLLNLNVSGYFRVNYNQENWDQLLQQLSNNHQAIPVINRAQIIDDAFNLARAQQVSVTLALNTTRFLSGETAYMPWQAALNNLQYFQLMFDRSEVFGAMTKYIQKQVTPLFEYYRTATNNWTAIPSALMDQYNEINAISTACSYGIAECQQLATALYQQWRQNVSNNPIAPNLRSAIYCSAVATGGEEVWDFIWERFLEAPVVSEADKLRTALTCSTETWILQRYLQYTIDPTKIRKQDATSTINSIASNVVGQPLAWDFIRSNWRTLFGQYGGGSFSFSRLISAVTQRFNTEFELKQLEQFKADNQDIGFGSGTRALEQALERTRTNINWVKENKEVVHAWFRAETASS
Description: Various treatments were applied topically, and, after 3 days, the filters and surrounding CAMs were resected and fixed in formalin.
Each bar represents the mean number of vessels and standard errors from 8 CAMs on each group.

CD13/aminopeptidase N = CD13/aminopeptidase N (Homo sapiens, UniProt P15144); details: cited from earlier work
Sequence of CD13/aminopeptidase N (P15144 whole entry): as the sequence (P15144 whole entry) above

[1] = system: MDA-MB-435 breast carcinoma; assay: Tumor therapy of mice bearing MDA-MB-435 breast carcinoma; assay type: in vivo; details: 5 μg/mouse/week doxorubicin-equivalent
[2] = system: MDA-MB-435 human breast carcinoma cells; details: for cell killing when agents not removed: after 24 hr
Protocol: (SEQ ID NO:19; control) conjugate (0.1 to 10 μg/well of doxorubicin-equivalent) for either 30 min or overnight. Following incubation, the agents were removed by extensive washing with PBS, then fresh medium added and incubation was continued.

[3] = system: MDA-MB-435 breast carcinoma; assay: Tumor therapy of mice bearing MDA-MB-435 breast carcinoma; assay type: in vivo, mouse
Protocol: Female 2-month old Balb c nu/nu mice (Harlan Sprague Dawley; San Diego Calif.) were used for these studies and were cared for according to the Burnham Institute animal facility guidelines. […] Tumors were allowed to grow to a size of about 1 cm^3 (about 5% of the mouse's body weight) before starting the treatment experiments, except for the toxicity experiments as discussed below.
Weekly doxorubicin/peptide conjugate or control treatments (5 μg/mouse/week of doxorubicin-equivalent) were administered intravenously. In some experiments, as indicated, a dose of 30 μg/mouse was administered every 3 weeks. […] As an additional control, in some experiments the tumor homing peptide was mixed with doxorubicin, without linking, and the mixture was administered to tumor bearing mice.
Mice were anesthetized with a tribromoethanol-based anesthetic mixture (AVERTIN; Papaioannou and Fox, Lab. Anim. 43:189-192 (1993)) before each treatment. Anesthetization facilitated the tail vein injections (final volume, 200 μl) and allowed precise serial three dimensional tumor size measurements. Tumor volume calculations were based on the equation for the volume of an ovaloid: V=4/3(nabc), where a, b, and c are ½ of the measured diameters in each of the three dimensions.
Briefly, mice with size-matched tumors (˜1000 mm^3) were randomized into four treatment groups (six animals per group): vehicle only, free doxorubicin, doxorubicin-control peptide, and doxorubicin-CNGRC (SEQ ID NO:8). Mice were treated at 5 μg/mouse/week of doxorubicin-equivalent, and the difference in tumor volumes between day 1 and day 28 determined (FIG. 11A).

[4] = system: MDA-MB-435 derived tumors; assay: In vivo targeting of phage to breast carcinoma xenografts (phage recovery); set-up: species or system mouse; inhibition of CGSLVRC phage tumor homing by soluble peptide: dose or concentration left out as unconfirmed; details: for reduction of the amount of phage in the tumor by coinjection of free peptide: 500 μg free peptide coinjected with RGD-4C phage; for inhibition of tumor homing of CNGRCVSGCAGRC (NGR) phage by co-injected soluble peptide: breast carcinoma xenografts; for inhibition of tumor homing of RGD-4C phage by co-injected soluble peptide: increasing amounts of peptide
Protocol: When the tumors attained a diameter of about 1 cm, phage expressing a specific RGD-containing peptide were administered to the tumor bearing mouse. Similar results to those discussed below also were obtained with nude mice bearing tumors formed by implantation of human melanoma C8161 cells or by implantation of mouse B16 melanoma cells.
1×10^9 phage expressing the RGD-containing peptide, RGD-4C ([…]; SEQ ID NO:1; see, Koivunen et al., supra, 1995) or control (insertless) phage were injected intravenously (iv) into the mice and allowed to circulate for 4 min. The mice then were snap frozen or perfused through the heart while under anesthesia, and various organs, including tumor, brain and kidney, were removed and the phage present in the organs was quantitated (see U.S. Pat. No. 5,622,699; Pasqualini and Ruoslahti, supra, 1996).
Phage displaying tumor homing peptides were recovered from breast carcinoma xenografts. […] The mean number of phage recovered from the tumor or control tissue (brain) and the standard error of the mean (SEM) from triplicate platings are shown in FIG. 1.
An insertless phage with a different selective marker (ampicillin instead of tetracycline) was co-injected with the NGR phage at the same input to assess specificity within the same tumor-bearing animal. The ratios were calculated using the number of co-injected control ampicillin-resistant phage recovered from the same tissues. The phage were quantitated from triplicate platings on tetracycline (the homing phage) or ampicillin (control phage) selective plates. Various additional control phage were injected separately into tumor-bearing mice. These controls included: fd-tet phage without insert; unselected phage library mixtures; phage selected and shown to home to other normal vascular beds; and phage displaying peptides that were unrelated to NGR. The RGD-4C ([…]; SEQ ID NO:1) phage served as a positive control.

human αv-integrins = details: cited from earlier work
B16B15b mouse melanoma = assay: In vivo panning against a melanoma tumor; details: 89 cloned phage recovered from B16B15b tumors, three rounds
Protocol: Mice bearing a melanoma were produced by implantation of B16B15b mouse melanoma cells, which produce highly vascularized tumors. B16B15b mouse melanoma cells were injected subcutaneously into the mammary fat pad of nude mice (2 months old) and tumors were allowed to grow until the diameter was about 1 cm. In vivo panning was performed as disclosed above. Approximately 1×10^12 transducing units of phage expressing the CX5C (SEQ ID NO:9), CX6C (SEQ ID NO:10) or CX7C (SEQ ID NO:11) library were injected, iv, and allowed to circulate for 4 min. Mice then were snap frozen in liquid nitrogen or perfused through the heart while under anesthesia, tumor tissue and brain (control organ) were removed, and phage were isolated as described above. Three rounds of in vivo panning were performed.
The amino acid sequences were determined for the inserts in 89 cloned phage recovered from the B16B15b tumors. The peptides expressed by these phage were represented by two predominant sequences, […] (SEQ ID NO:4; 52% of the clones sequenced) and WGTGLC (SEQ ID NO:18; 25% of the clones; see Table 2).

[5] = Acute toxicity in mice bearing extremely large tumors; details: 200 μg/mouse, tumors about 25% of body weight
breast tumor = assay: Viability of tumor cells obtained from tumors of treated mice; assay type: in vivo, mouse; details: 30 μg equivalent iv, tumors removed five days after treatment
Protocol: In addition, the viability of tumor cells obtained from tumors of mice treated with a tumor homing peptide/doxorubicin conjugate was compared to that of tumors from mice treated with free doxorubicin. In these experiments, breast tumor bearing mice were size matched with regard to the tumors, then treated intravenously with 30 μg equivalent of doxorubicin/RGD-4C ([…]; SEQ ID NO:1) or of free doxorubicin. Five days after treatment, the mice were euthanized and the tumors were removed. The tumor pairs were weighed and ground and the cell suspensions were plated (2 g tumor tissue per 150 mm plate).
Cell numbers were determined at 24 hours and 7 days after plating. Viability of tumor cells from the tumors of mice receiving the doxorubicin/RGD-4C ([…]; SEQ ID NO:1) conjugate was about 3 fold less than cells from tumors of mice treated with the free doxorubicin.

[6] = 5 μg/mouse/week doxorubicin-equivalent iv

O=c1[nH]cc(F)c(=O)[nH]1 [CARAC]
CD13/APN obtained by affinity chromatography on immobilized peptide (CD13/APN): yielded no CD13/APN | elution of CD13/APN from the CNGRC column by soluble peptide (CD13/APN; Molt-4/CD13, MDA-MB-435/CD13 or HL-60 cell extracts): did not elute any activity

CCCCC[C@H](CC(=O)NO)C(=O)N[C@H](C(=O)N1CCC[C@H]1CO)C(C)C [actinonin]
effect on bFGF-induced angiogenesis in CAM (CD13): suppress bFGF-induced angiogenesis | block of cell-surface CD13/aminopeptidase N enzymatic activity (CD13/aminopeptidase N): potently blocked

COc1cccc2c1C(=O)c1c(O)c3c(c(O)c1C2=O)C[C@@](O)(C(=O)CO)C[C@@H]3O[C@H]1C[C@H](N)[C@H](O)[C@H](C)O1 [doxorubicin, reference compound]
gross examination of tumors (skin ulceration and tumor necrosis) [1]: no such signs were observed | cell killing when agents not removed [2]: cells were killed | effect on tumor growth ([3]; relative to vehicle alone): essentially no effect on tumor growth

ACDCRGDCFCG
reduction of the amount of phage in the tumor by coinjection of free peptide [4]: about tenfold

CDCRGDCFC [RGD-4C]
binding to αv-integrins (human αv-integrins): binds to human αv-integrins | inhibition of tumor homing of CNGRCVSGCAGRC (NGR) phage by co-injected soluble peptide [4]: partially inhibited | inhibition of tumor homing of RGD-4C phage by co-injected soluble peptide [4]: readily inhibited | potency in inhibiting NGR phage tumor homing, less potent than the CNGRC peptide ([4]; mouse, in vivo): 5-10 times

CGSLVRC
inhibition of CGSLVRC phage tumor homing by soluble peptide [4]: inhibition of tumor homing

CLSGSLSC
share of the clones sequenced (B16B15b mouse melanoma): 52%

GACVFSIAHECGA (not fully specified (bridges); also: cyclic, ring type not given here) [unrelated cyclic control peptide, reference compound]
inhibition of tumor homing of CNGRCVSGCAGRC (NGR) phage by co-injected soluble peptide [4]: had no effect | inhibition of tumor homing of RGD-4C phage by co-injected soluble peptide [4]: had no effect

GRGESP [reference compound]
reduction of the amount of phage in the tumor by coinjection of free peptide [4]: essentially had no effect

WGTGLC
share of the clones sequenced (B16B15b mouse melanoma): 25%

doxorubicin/RGD-4C: doxorubicin conjugated to peptide CDCRGDCFC (SEQ ID NO:1) (cysteine pairing not given here; also: doxorubicin conjugate)
gross examination of tumors (skin ulceration and tumor necrosis) [1]: marked skin ulceration and tumor necrosis | cell death after 30 min exposure ([2]; 0.1 to 10 μg/well doxorubicin-equivalent, agents removed after 30 min, survival at 24 hours): cell death was present | cell killing when agents not removed [2]: cells were killed | pulmonary metastasis [3, 6]: a lower incidence of pulmonary metastasis and fewer metastatic lesions | spread to regional lymph nodes [3, 6]: less spread to regional lymph nodes | survival [3, 6]: survived beyond the time when the doxorubicin control and conjugate control mice had died | tumor size versus doxorubicin control [3, 6]: significantly smaller tumors | time alive after control mice had died ([3]; dose escalation, 30 μg/mouse every three weeks for three cycles): more than 6 months | histopathological analysis of tumor vasculature ([3]; mouse, in vivo): pronounced destruction of the vasculature | survival after acute dose [5]: survived for longer than one week | viability of tumor cells, less than cells from tumors of mice treated with free doxorubicin (breast tumor): about 3 fold
